The values below come from patent US11339171B2, “MDM2 inhibitors” (Gan & Lee Pharmaceuticals, priority 2017, dated 2022).

The term IC50 denotes the concentration that inhibits the measured activity by half. Low readings indicate higher potency, high ones lower potency.

This test has as its target T1, MDM2 (Homo sapiens, UniProt Q00987).
T1 construct: made in house
Put plainly: Inhibition test of MDM2-P53 (GST-MDM2, Biotin-P53, Anti-GST-Tb, SA-XL665). The test is classed as binding. The gist of the method: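 Compounds, serially diluted 5-fold (twelve concentrations), were shaken for 90 min at 25° C with a mix of GST-MDM2 (4 nM final), Biotin-P53, anti-GST-Tb and SA-XL665. Buffer: 1×PBS, 0.1% BSA, 5 mM DTT, 1 mM AEBSF; signal read on a microplate reader.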

T1 sequence (Q00987 whole entry): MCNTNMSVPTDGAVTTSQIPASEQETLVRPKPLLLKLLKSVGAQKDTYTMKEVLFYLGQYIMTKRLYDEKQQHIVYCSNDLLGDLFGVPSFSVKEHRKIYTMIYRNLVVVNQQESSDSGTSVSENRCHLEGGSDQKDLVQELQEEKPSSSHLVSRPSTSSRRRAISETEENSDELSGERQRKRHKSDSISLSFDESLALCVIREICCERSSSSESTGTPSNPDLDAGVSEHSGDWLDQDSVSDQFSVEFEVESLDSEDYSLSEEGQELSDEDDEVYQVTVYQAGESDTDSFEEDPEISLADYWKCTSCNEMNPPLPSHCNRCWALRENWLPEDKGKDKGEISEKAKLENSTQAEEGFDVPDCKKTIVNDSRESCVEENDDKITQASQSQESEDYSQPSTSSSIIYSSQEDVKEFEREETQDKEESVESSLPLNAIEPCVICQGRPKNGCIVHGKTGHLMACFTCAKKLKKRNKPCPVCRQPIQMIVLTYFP

In turn, `COc1nc(N2CCC2)ncc1-c1nc2c(n1C(C)C)[C@]1(C(=O)Nc3cc(Cl)ccc31)N(c1cc(Cl)ccc1C)C2=O` [Example R-117, (R)-2′-(2-(12zetidine-1-yl)-4-methoxypyrimidin-5-yl)-6-chloro-5′-(5-chloro-2-methylphenyl)-3′-isopropyl-3′H-spiro[dihydroindole-3,4′-pyrrolo[3,4-d]imidazole]-2,6′(5′ H)-dione] returned a half-inhibitory concentration (IC50) of 233 nM. In the case of `COc1nc(C)ncc1-c1nc2c(n1C(C)C)[C@]1(C(=O)Nc3cc(Cl)ccc31)N(c1cc(Cl)ccc1C)C2=O` [Example R-118, (R)-6-chloro-5′-(5-chloro-2-methylphenyl)-3′-isopropyl-2′-(4-methoxy-2-methylpyrimidin-5-yl)-3′H-spiro[dihydroindole-3,4′-pyrrolo[3,4-d]imidazole]-2,6′(5′H)-dione], it took 436 nM to reach half-maximal inhibition (IC50).

Consider `CCN(C)c1ncc(-c2nc3c(n2C(C)C)[C@]2(C(=O)Nc4cc(Cl)ccc42)N(c2cc(Cl)ccc2C)C3=O)c(OC)n1` [Example R-119, (R)-6-chloro-5′-(5-chloro-2-methylphenyl)-2′-(2-(ethyl(methyl)amino)-4-methoxypyrimidin-5-yl)-3′-isopropyl-3′H-spiro[dihydroindole-3,4′-pyrrolo[3,4-d]imidazole]-2,6′(5′H)-dione], for which the IC50 was 851 nM. In turn, `COc1cc(OC(F)(F)F)ccc1-c1nc2c(n1C(C)C)[C@]1(C(=O)Nc3cc(Cl)ccc31)N(c1cccc(Cl)c1)C2=O` [Example R-120, (R)-6-chloro-5′-(3-chlorophenyl)-3′-isopropyl-2′-(2-methoxy-4-(trifluoromethoxy)phenyl)-3′H-spiro[dihydroindole-3,4′-pyrrolo[3,4-d]imidazole]-2,6′(5′H)-dione] displayed an IC50 of 4780 nM. With `COc1nc(C2CC2)ncc1-c1nc2c(n1C(C)C)[C@]1(C(=O)Nc3cc(Cl)ccc31)N(c1cc(Cl)ccc1C)C2=O` [Example R-121, (R)-6-chloro-5′-(5-chloro-2-methylphenyl)-2′-(2-cyclopropyl-4-methoxypyrimidin-5-yl)-3′-isopropyl-3′H-spiro[dihydroindole-3,4′-pyrrolo[3,4-d]imidazole]-2,6′ (5′H)-dione], the midpoint of inhibition, the IC50, lay at 300 nM. The result for `COc1nc(C2CC2)ncc1-c1nc2c(n1C(C)C)[C@]1(C(=O)Nc3cc(Cl)ccc31)N(c1cccc(Cl)c1)C2=O` [Example R-122, (R)-6-chloro-5′-(3-chlorophenyl)-2′-(2-cyclopropyl-4-methoxypyrimidin-5-yl)-3′-isopropyl-3′H-spiro[dihydroindole-3,4′-pyrrolo[3,4-d]imidazole]-2,6′(5′H)-dione] reads 794 nM.

In turn, `CCOc1ncc(-c2nc3c(n2C(C)C)[C@]2(C(=O)Nc4cc(Cl)ccc42)N(c2cccc(Cl)c2)C3=O)c(OC)n1` [Example R-123, (R)-6-chloro-5′-(3-chlorophenyl)-2′-(2-ethoxy-4-methoxypyrimidin-5-yl)-3′-isopropyl-3′H-spiro[dihydroindole-3,4′-pyrrolo[3,4-d]imidazole]-2,6′(5′H)-dione] registered an IC50 of 116 nM. `COc1nc(OC(C)C)ncc1-c1nc2c(n1C(C)C)[C@]1(C(=O)Nc3cc(Cl)ccc31)N(c1cccc(Cl)c1)C2=O` [Example R-124, (R)-6-chloro-5′-(3-chlorophenyl)-2′-(2-isopropoxy-4-methoxypyrimidin-5-yl)-3′-isopropyl-3′H-spiro[dihydroindole-3,4′-pyrrolo[3,4-d]imidazole]-2,6′(5′H)-dione] returned an IC50 of 1310 nM.

Take `COc1cc(C#N)ccc1-c1nc2c(n1C(C)C)[C@]1(C(=O)Nc3cc(Cl)ccc31)N(c1cccc(Cl)c1)C2=O` [Example R-128, (R)-4-(6-chloro-5′-(3-chlorophenyl)-3′-isopropyl-2,6′-dioxo-5′,6′-dihydro-3′H-spiro[dihydroindole-3,4′-pyrrolo[3,4-d]imidazole]-2′-yl)-3-methoxybenzonitrile]: inhibition was half-maximal at 612 nM (IC50). In the case of `COc1cc(C(F)(F)F)ccc1-c1nc2c(n1C(C)C)[C@]1(C(=O)Nc3cc(Cl)ccc31)N(c1cccc(Cl)c1)C2=O` [Example R-129, (R)-6-chloro-5′-(3-chlorophenyl)-3′-isopropyl-2′-(2-methoxy-4-(trifluoromethyl)phenyl)-3′H-spiro[dihydroindole-3,4′-pyrrolo[3,4-d]imidazole]-2,6′(5′H)-dione], the IC50 turned out to be 149 nM.

`COc1cc(F)c(-c2nc3c(n2C(C)C)[C@]2(C(=O)Nc4cc(Cl)ccc42)N(c2cc(Cl)ccc2C)C3=O)c(OC)c1` [Example R-130, (R)-6-chloro-5′-(5-chloro-2-methylphenyl)-2′-(2-fluoro-4,6-dimethoxyphenyl)-3′-isopropyl-3′H-spiro[dihydroindole-3,4′-pyrrolo[3,4-d]imidazole]-2,6′(5′H)-dione] registered an IC50 of 568 nM. For `COc1cc(OC)c(-c2nc3c(n2C(C)C)[C@]2(C(=O)Nc4cc(Cl)ccc42)N(c2cc(Cl)cnc2C)C3=O)cn1` [Example R-131, (R)-6-chloro-5′-(5-chloro-2-methylpyridin-3-yl)-2′-(4,6-dimethoxypyridin-3-yl)-3′-isopropyl-3′H-spiro[dihydroindole-3,4′-pyrrolo[3,4-d]imidazole]-2,6′(5′H)-dione], the IC50 amounted to 120 nM. The molecule `COc1cc(OC)c(-c2nc3c(n2C(C)C)[C@]2(C(=O)Nc4cc(Cl)ccc42)N(c2cc(Cl)ccc2F)C3=O)cn1` [Example R-133, (R)-6-chloro-5′-(5-chloro-2-fluorophenyl)-2′-(4,6-dimethoxypyridin-3-yl)-3′-isopropyl-3′H-spiro[dihydroindole-3,4′-pyrrolo[3,4-d]imidazole]-2,6′(5′H)-dione] gave a concentration for half-maximal inhibition (IC50) of 1110 nM. The molecule `CCOc1ncc(-c2nc3c(n2C(C)C)[C@]2(C(=O)Nc4cc(Cl)ccc42)N(c2cc(Cl)cnc2C)C3=O)c(OC)n1` [Example R-134, (R)-6-chloro-5′-(5-chloro-2-methylpyridin-3-yl)-2′-(2-ethoxy-4-methoxypyrimidin-5-yl)-3′-isopropyl-3′H-spiro[dihydroindole-3,4′-pyrrolo[3,4-d]imidazole]-2,6′(5′H)-dione] showed a half-maximal inhibitory concentration (IC50) of 322 nM. In turn, `COc1nc(N(C)C)ncc1-c1nc2c(n1C(C)C)[C@]1(C(=O)Nc3cc(Cl)ccc31)N(c1cc(Cl)cnc1C)C2=O` [Example R-135, (R)-6-chloro-5′-(5-chloro-2-methylpyridin-3-yl)-2′-(2-(dimethylamino)-4-methoxypyrimidin-5-yl)-3′-isopropyl-3′H-spiro[dihydroindole-3,4′-pyrrolo[3,4-d]imidazole]-2,6′(5′H)-dione] displayed an IC50 of 423 nM. In the case of `COc1nc(OC(C)C)ncc1-c1nc2c(n1C(C)C)[C@]1(C(=O)Nc3cc(Cl)ccc31)N(c1cc(Cl)cnc1C)C2=O` [Example R-136, (R)-6-chloro-5′-(5-chloro-2-methylpyridin-3-yl)-2′-(2-isopropoxy-4-methoxypyrimidin-5-yl)-3′-isopropyl-3′H-spiro[dihydroindole-3,4′-pyrrolo[3,4-d]imidazole]-2,6′(5′H)-dione], the IC50 was determined as 1800 nM. For the molecule `COc1cc(OC(C)C)ncc1-c1nc2c(n1C(C)C)[C@]1(C(=O)Nc3cc(Cl)ccc31)N(c1cc(Cl)cnc1C)C2=O` [Example R-137, (R)-6-chloro-5′-(5-chloro-2-methylpyridin-3-yl)-2′-(6-isopropoxy-4-methoxypyridin-3-yl)-3′-isopropyl-3′H-spiro[dihydroindole-3,4′-pyrrolo[3,4-d]imidazole]-2,6′(5′H)-dione], the IC50 stood at 422 nM. For the molecule `COc1cc(C(F)(F)F)ncc1-c1nc2c(n1C(C)C)[C@]1(C(=O)Nc3cc(Cl)ccc31)N(c1cc(Cl)ccc1C)C2=O` [Example R-138, (R)-6-chloro-5′-(5-chloro-2-methylphenyl)-3′-isopropyl-2′-(4-methoxy-6-(trifluoromethyl)pyridin-3-yl)-3′H-spiro[dihydroindole-3,4′-pyrrolo[3,4-d]imidazole]-2,6′(5′H)-dione], the concentration for half-maximal inhibition (IC50) is 132 nM. The molecule `CCOc1cc(OC)c(-c2nc3c(n2C(C)C)[C@]2(C(=O)Nc4cc(Cl)ccc42)N(c2cc(F)cc(Cl)c2)C3=O)cn1` [Example R-139, (R)-6-chloro-5′-(3-chloro-5-fluorophenyl)-2′-(6-ethoxy-4-methoxypyridin-3-yl)-3′-isopropyl-3′H-spiro[dihydroindole-3,4′-pyrrolo[3,4-d]imidazole]-2,6′(5′H)-dione] showed a 50% inhibitory concentration (IC50) of 342 nM. Regarding `COc1nc(OCC(F)(F)F)ncc1-c1nc2c(n1C(C)C)[C@]1(C(=O)Nc3cc(Cl)ccc31)N(c1cc(Cl)ccc1C)C2=O` [Example R-141, (R)-6-chloro-5′-(5-chloro-2-methylphenyl)-3′-isopropyl-2′-(4-methoxy-2-(2,2,2-trifluoroethoxy)pyrimidin-5-yl)-3′H-spiro[dihydroindole-3,4′-pyrrolo[3,4-d]imidazole]-2,6′(5′H)-dione], the 50% inhibitory concentration (IC50) is 762 nM. Turning to `COc1cc(C(F)(F)F)ncc1-c1nc2c(n1C(C)C)[C@]1(C(=O)Nc3cc(Cl)ccc31)N(c1cccc(Cl)c1)C2=O` [Example R-142, (R)-6-chloro-5′-(3-chlorophenyl)-3′-isopropyl-2′-(4-methoxy-6-(trifluoromethyl)pyridin-3-yl)-3′H-spiro[dihydroindole-3,4′-pyrrolo[3,4-d]imidazole]-2,6′(5′H)-dione], the midpoint of inhibition, the IC50, lay at 137 nM.

In the case of `COc1cc(C2CC2)ccc1-c1nc2c(n1C(C)C)[C@]1(C(=O)Nc3cc(Cl)ccc31)N(c1cc(Cl)cnc1C)C2=O` [Example R-145, (R)-6-chloro-5′-(5-chloro-2-methylpyridin-3-yl)-2′-(4-cyclopropyl-2-methoxyphenyl)-3′-isopropyl-3′H-spiro[dihydroindole-3,4′-pyrrolo[3,4-d]imidazole]-2,6′(5′H)-dione], the midpoint of inhibition, the IC50, lay at 749 nM. `CCOc1ccc(-c2nc3c(n2C(C)C)[C@]2(C(=O)Nc4cc(Cl)ccc42)N(c2cc(Cl)ccc2C)C3=O)c(OC)n1` [Example R-146, (R)-6-chloro-5′-(5-chloro-2-methylphenyl)-2′-(6-ethoxy-2-methoxypyridin-3-yl)-3′-isopropyl-3′H-spiro[dihydroindole-3,4′-pyrrolo[3,4-d]imidazole]-2,6′(5′H)-dione] came in with a half-inhibitory concentration (IC50) of 6710 nM.
